Data published in paper PMC8328003 (ACS chemical neuroscience, 2021).
Values joined by “and” are separate entries in the source; they are usually repeats but may differ in a detail not shown here. Equal entries are not always repeated. Where two headings read alike, the source gives them in different places.

Columns and labels:
[1] = target: mouse mu opioid receptor (mMOR) (Mus musculus, UniProt P42866); assay: Competition binding against 125I-IBNtxA, CHO cell membranes; settings: for Ki: 125I-IBNtxA (0.1 nM), CHO membranes
[2] = target: mouse kappa opioid receptor (mKOR) (Mus musculus, UniProt P33534); assay: as above
mDOR [3] = target: T1, mDOR (Mus musculus, UniProt P32300); assay: as above
mMOR = mMOR (Mus musculus, UniProt P42866); assay: [35S]GTPγS functional assay, CHO membranes; type: biochemical; settings: for mMOR Emax: relative to DAMGO at 1000 nM
mKOR = mKOR (Mus musculus, UniProt P33534); assay: [35S]GTPγS functional assay, CHO membranes; type: biochemical; settings: for mKOR Emax: relative to U50,488H at 1000 nM
mDOR [4] = target: T1, mDOR; assay: [35S]GTPγS functional assay, CHO membranes; type: biochemical; settings: for mDOR Emax: relative to DPDPE at 1000 nM
[5] = target: human mu opioid receptor (hMOR) (Homo sapiens, UniProt P35372); assay: cell-based; type: cell-based
hMOR [6] = target: T2, hMOR (Homo sapiens, UniProt P35372); assay: BRET βarrestin-2 recruitment, HEK293T cells; type: cell-based
[7] = target: human kappa opioid receptor (hKOR) (Homo sapiens, UniProt P41145); assay: BRET Gi-1 activation, HEK293T cells; type: cell-based; settings: for pEC50 ± SEM Gi-1 activation hKOR / EC50: BRET; for EC50: read-out: EC50 Gi-1 activation hKOR
hKOR [8] = target: T3, hKOR (Homo sapiens, UniProt P41145); assay: BRET βarrestin-2 recruitment, HEK293T cells; type: cell-based; settings: for pEC50 ± SEM βarrestin-2 recruitment hKOR / EC50: BRET; for EC50: read-out: EC50 βarrestin-2 recruitment hKOR
hDOR [9] = target: T4, hDOR (Homo sapiens, UniProt P41143); assay: BRET Gi-1 activation, HEK293T cells; type: cell-based; settings: for Emax% ± SEM Gi-1 activation hDOR: normalized to control agonist (DPDPE; SNC80 in Figure 6G)
hDOR [10] = target: T4, hDOR; assay: BRET βarrestin-2 recruitment, HEK293T cells; type: cell-based; settings: for Emax% ± SEM βarrestin-2 recruitment hDOR: normalized to DPDPE
C57BL/6J mice [11] = assay: 55 °C warm-water tail-withdrawal assay; type: in vivo, mouse; settings: for antinociception ED50 (and 95% C.I.): WT C57BL/6J mice, from peak effect
C57BL/6J mice [12] = assay: CLAMS breathing rate; type: in vivo, mouse; settings: 100 nmol, i.c.v., 180 min, versus vehicle
C57BL/6J mice [13] = assay: CLAMS locomotor activity; type: in vivo, mouse; settings: 100 nmol, i.c.v., 180 min, versus vehicle
hMOR [14] = settings: read-out: binding affinity at hMOR; cited from earlier work
hMOR [15] = target: T2, hMOR; type: cell-based
hMOR [16] = target: T2, hMOR; type: cell-based; remark: listed apart in the source
hMOR [17] = target: T2, hMOR; assay: NIMH-PDSP radioligand binding; settings: read-out: affinity Ki hMOR
hKOR [18] = target: T3, hKOR; assay: NIMH-PDSP radioligand binding; settings: read-out: affinity Ki hKOR
hα2A = target: T5, hα2A (Homo sapiens, UniProt P08913); assay: NIMH-PDSP radioligand binding; settings: read-out: affinity Ki hα2A
T5 sequence (P08913 1-465): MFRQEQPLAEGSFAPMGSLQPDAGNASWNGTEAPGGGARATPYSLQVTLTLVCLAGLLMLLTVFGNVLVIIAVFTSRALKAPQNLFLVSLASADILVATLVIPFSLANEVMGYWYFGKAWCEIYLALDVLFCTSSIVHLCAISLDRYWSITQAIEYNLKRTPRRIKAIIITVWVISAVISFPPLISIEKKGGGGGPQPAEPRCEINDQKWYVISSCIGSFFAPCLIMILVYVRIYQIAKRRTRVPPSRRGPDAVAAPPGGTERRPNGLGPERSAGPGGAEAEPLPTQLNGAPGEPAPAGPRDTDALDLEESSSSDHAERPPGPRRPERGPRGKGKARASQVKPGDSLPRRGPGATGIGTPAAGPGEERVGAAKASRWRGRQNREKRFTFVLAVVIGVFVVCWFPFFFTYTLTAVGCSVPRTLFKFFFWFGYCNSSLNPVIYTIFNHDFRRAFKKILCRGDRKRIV

hSERT = hSERT (Homo sapiens, UniProt P31645); assay: NIMH-PDSP radioligand binding; settings: read-out: affinity Ki hSERT
hDAT = hDAT (Homo sapiens, UniProt Q01959); assay: NIMH-PDSP radioligand binding; settings: read-out: affinity Ki hDAT
hH1 = hH1 (Homo sapiens, UniProt P35367); assay: NIMH-PDSP radioligand binding; settings: read-out: affinity Ki hH1
hNET = hNET (Homo sapiens, UniProt P23975); assay: NIMH-PDSP radioligand binding; settings: read-out: affinity Ki hNET
hNMDA = assay: NIMH-PDSP radioligand binding; set-up: species or system human; settings: read-out: affinity Ki hNMDA
MOR = settings: ex vivo; cited from earlier work
[19] = affinity (Ki) mKOR, 125I-IBNtxA (0.1 nM)
[20] = affinity (Ki) mDOR, 125I-IBNtxA (0.1 nM)
[21] = i.c.v., MOR KO / KOR KO mice versus WT

CC[C@@H]1CN2CC[C@]3(C(=O)Nc4ccccc43)[C@@H]2C[C@@H]1/C(=C\OC)C(=O)OC [corynoxine B]
Ki ([1]; affinity (Ki) mMOR): 5010 ± 388 nM
Ki [2, 19]: > 1 µM
Ki ([2]; affinity (Ki) mKOR, 125I-IBNtxA (0.1 nM), μM): > 10 µM
Ki (mDOR [3]; [20]): 1680 ± 261 nM
mMOR Emax (mMOR): no activity
mKOR Emax (mKOR): no activity
mDOR Emax (mDOR [4]): no activity

CC[C@@H]1CN2CC[C@@]3(C(=O)Nc4ccccc43)[C@@H]2C[C@@H]1/C(=C\OC)C(=O)OC [corynoxine]
Ki ([1]; affinity (Ki) mMOR): 140 nM and 141 nM
Ki [2, 19]: 3.08 ± 1.73 µM
Ki (mDOR [3]; [20]): 1270 ± 226 nM
EC50 (mMOR): 203 ± 4.4 nM
Emax at 1 µM (mMOR; read-out: mMOR Emax, relative to DAMGO at 1000 nM): 136%
mMOR Emax (mMOR): 136.4 ± 3.3%
mKOR EC50 (mKOR; [35S]GTPγS): no activity
mKOR Emax (mKOR): no activity
mDOR Emax (mDOR [4]): no activity
EC50 [5]: 1630 nM
fold less potent than DAMGO, Gi-1 hMOR [5]: 58 fold
Emax ([5]; HEK-293T, read-out: Emax% ± SEM Gi-1 activation hMOR): 96.5 ± 4.69%
Emax (hMOR [6]; HEK-293T, read-out: Emax% ± SEM βarrestin-2 recruitment hMOR): < 20%
Emax ([7]; HEK-293T, read-out: Emax% ± SEM Gi-1 activation hKOR): < 20%
Emax (hKOR [8]; HEK-293T, read-out: Emax% ± SEM βarrestin-2 recruitment hKOR): < 20%
Emax (hDOR [9]; HEK-293T, read-out: Emax% ± SEM Gi-1 activation hDOR): < 20%
Emax (hDOR [10]; HEK-293T, read-out: Emax% ± SEM βarrestin-2 recruitment hDOR): < 20%
receptor dependence of antinociception (C57BL/6J mice [11]; [21]): MOR dependent
antinociception ED50 (and 95% C.I.) (C57BL/6J mice [11]; i.c.v.): 3.43 (0.53–6.41) nmol
effect on breath rate (C57BL/6J mice [12]): no depression of breath rate
effect on breath rate (C57BL/6J mice [12]; listed as Corynoxine): increase in breath rates
locomotor effect (C57BL/6J mice [13]): did not produce significant hyperlocomotion
Ki (hMOR [14]): 16.4 nM

C=C[C@H]1CN2CCc3c([nH]c4cccc(OC)c34)[C@H]2C[C@@H]1/C(=C\OC)C(=O)OC [isopaynantheine]
Ki ([1]; read-out: affinity (Ki) mMOR): 91.8 ± 5.8 nM
Ki ([2]; read-out: affinity (Ki) mKOR, 125I-IBNtxA (0.1 nM)): 0.325 µM and 0.326 µM
Ki (mDOR [3]; read-out: affinity (Ki) mDOR, 125I-IBNtxA (0.1 nM)): 823 ± 127 nM
EC50 (mMOR; read-out: mMOR EC50, [35S]GTPγS): 192 ± 5.8 nM
mMOR Emax (mMOR): 50 ± 5%
EC50 (mKOR; read-out: mKOR EC50, [35S]GTPγS): 282 ± 18 nM
mKOR Emax (mKOR): 93.5 ± 5%
mDOR Emax (mDOR [4]): no activity
Emax% ± SEM Gi-1 activation hMOR [5]: < 20%
Emax% ± SEM βarrestin-2 recruitment hMOR (hMOR [6]; normalized to DAMGO): < 20%
pEC50 ± SEM Gi-1 activation hKOR [7]: 6.25 ± 0.066
Emax% ± SEM Gi-1 activation hKOR ([7]; normalized to U50,488H): 80%
Emax% ± SEM Gi-1 activation hKOR ([7]; normalized to U50,488H, listed as Isopaynantheine): 80.5 ± 2.9%
EC50 [7]: 560 nM
pEC50 ± SEM βarrestin-2 recruitment hKOR (hKOR [8]): 6.22 ± 0.43
Emax% ± SEM βarrestin-2 recruitment hKOR (hKOR [8]; normalized to U50,488H): < 20%
EC50 (hKOR [8]): 599 nM
Emax% ± SEM Gi-1 activation hDOR (hDOR [9]): < 20%
Emax% ± SEM βarrestin-2 recruitment hDOR (hDOR [10]): < 20%
Emax% ± SEM Gi-1 antagonism at MOR (hMOR [15]): 156.91 ± 13.49%
Emax% ± SEM βarrestin-2 antagonism at MOR (hMOR [16]): 106 ± 8.67%
Ki (hMOR [17]): 122 nM
Ki (hKOR [18]): 27 nM
Ki (hα2A): 2150 nM
Ki (hSERT): 5110 nM
Ki (hDAT): 5070 nM
Ki (hH1): 206 nM
receptor dependence of antinociception (C57BL/6J mice [11]; [21]): MOR independent and KOR dependent

CC[C@H]1CN2CCc3c([nH]c4cccc(OC)c34)[C@H]2C[C@@H]1/C(=C\OC)C(=O)OC [mitraciliatine]
pEC50 ± SEM Gi-1 activation hKOR [7]: 6.57 ± 0.06
Emax% ± SEM Gi-1 activation hKOR ([7]; normalized to U50,488H): 114.32 ± 2.42%
EC50 [7]: 269 nM
pEC50 ± SEM βarrestin-2 recruitment hKOR (hKOR [8]): 6.42 ± 0.06
Emax% ± SEM βarrestin-2 recruitment hKOR (hKOR [8]; normalized to U50,488H): 104%
Emax% ± SEM βarrestin-2 recruitment hKOR (hKOR [8]; normalized to U50,488H, listed as Mitraciliatine): 104.13 ± 2.57%
EC50 (hKOR [8]): 383 nM
Emax% ± SEM βarrestin-2 recruitment hDOR (hDOR [10]): < 20%
Ki (hNET): 6600 nM
Ki (hKOR [18]): 73 nM
Ki (hα2A): 2150 nM
receptor dependence of antinociception (C57BL/6J mice [11]; [21]): MOR dependent and, surprisingly, independent of KOR
maximal antinociception (ceiling effect, % MPE) (C57BL/6J mice [11]; i.c.v., WT mice, mitraciliatine at 100 nmol): 67%
effect on breath rate (C57BL/6J mice [12]): no respiratory depression
effect on breath rate (C57BL/6J mice [12]; listed as Mitraciliatine): increase in breath rates
locomotor effect (C57BL/6J mice [13]): no significant hyperlocomotion

CN1CC[C@]23c4c5ccc(O)c4O[C@H]2[C@@H](O)C=C[C@H]3[C@H]1C5 [morphine, reference compound]
antinociception ED50 (and 95% C.I.) (C57BL/6J mice [11]; i.c.v.): 4.77 (1.49–28.8) nmol
effect on breath rate (C57BL/6J mice [12]): significant decrease in breath rate
locomotor effect (C57BL/6J mice [13]): significant locomotor effect

corynantheidine
fold higher mMOR affinity than mitragynine ([1]; same binding assay): ~4 fold
fold less potent than DAMGO, [35S]GTPγS (mMOR; mMOR): about 30 fold
mMOR Emax (mMOR; listed as corynanthedine): 74.13 ± 1.24%
mKOR EC50 (mKOR; [35S]GTPγS): no activity
mKOR Emax (mKOR): no activity
mDOR EC50 (mDOR [4]; [35S]GTPγS): no activity
mDOR Emax (mDOR [4]): no activity
Emax% ± SEM Gi-1 activation hMOR [5]: 37% and 37.2 ± 4.30%
fold less potent than DAMGO, Gi-1 hMOR [5]: 20 fold
Emax% ± SEM βarrestin-2 recruitment hMOR (hMOR [6]): < 20%
Emax% ± SEM Gi-1 activation hKOR [7]: < 20%
Emax% ± SEM βarrestin-2 recruitment hKOR (hKOR [8]): < 20%
Emax% ± SEM Gi-1 activation hDOR (hDOR [9]): < 20%
Emax% ± SEM βarrestin-2 recruitment hDOR (hDOR [10]): < 20%
Ki (hNMDA): 83 nM
maximal antinociception (ceiling effect, % MPE) (C57BL/6J mice [11]; mouse, in vivo): 50%
receptor dependence of antinociception (C57BL/6J mice [11]; mouse, in vivo): MOR dependent
agonist action in guinea pig ileum (MOR): no agonist actions
